This is an account of results in patent EP0233461B2, “4,5,6-Substituted-2-pyrimidinamines” (AMERICAN CYANAMID COMPANY, priority 1986, dated 1987).

Structures can show the parent of a compound that is named as a salt. Where two headings read alike, the source gives them in different places.

In this test the test system is human basophils. Put plainly: Inhibition of histamine release from immunologically stimulated human basophils. It is filed as cell-based. The settings on record: concentration causing 50% inhibition of histamine release, by linear regression, active if IC50 ≦ 48 µM. In a few lines: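 Leukocytes from sedimented human blood, washed in Tris-A and resuspended in Tris-ACM, were challenged with anti-IgE or antigen, with or without compound, for 60 min at 37 °C. Released histamine was measured fluorometrically after OPT derivatization and expressed as percent of total (perchloric acid lysate), corrected for spontaneous release.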

What is called IC50 is the concentration at which inhibition is half-maximal. Take `Cc1cccc(Nc2nccc(-c3ccc(C)s3)n2)c1` [N-(3-Methylphenyl)-4-(5-methyl-2-thienyl)-2-pyrimidinamine]: under “Homo sapiens, read-out: IC50”, the IC50 came to 1.4 µM.

As for `CCN(CC)CCOc1cccc(Nc2nccc(-c3cccnc3)n2)c1` [N-[3-[2-(Diethylamino)ethoxy]phenyl]-4-(3-pyridinyl)-2-pyrimidinamine], the IC50 (Homo sapiens, read-out: IC50) was 2.8 µM.

On to `Cc1cc(C)cc(Nc2nccc(-c3ccccn3)n2)c1` [N-(3,5-Dimethylphenyl)-4-(2-pyridinyl)-2-pyrimidinamine], for which the half-maximal inhibitory concentration (IC50) (read-out: IC50) is 1 µM.

Take `Fc1cccc(Nc2nccc(-c3ccncc3)n2)c1` [N-(3-Fluorophenyl)-4-(4-pyridinyl)-2-pyrimidinamine]: under “Homo sapiens, read-out: IC50”, the IC50 was found to be 0.7 µM.

For the molecule `COc1cccc(Nc2nccc(-c3cc(C)oc3C)n2)c1` [N-(3-Methoxyphenyl)-4-(2,5-dimethyl-3-furanyl)-2-pyrimidinamine], for the setting “Homo sapiens, read-out: IC50”, the IC50 turned out to be 5.8 µM.

Turning to `CCc1cccc(Nc2nccc(-c3ccco3)n2)c1` [N-(3-Ethylphenyl)-4-(2-furanyl)-2-pyrimidinamine], the half-inhibitory concentration (IC50) (Homo sapiens, read-out: IC50) was 9.7 µM.

Take `CCOC(=O)c1cccc(Nc2nccc(-c3cccnc3)n2)c1` [3-[[4-(3-Pyridinyl)-2-pyrimidinyl]amino]benzoic acid, ethyl ester]: the IC50 (Homo sapiens, read-out: IC50) was determined as 20.3 µM.

Consider `CCc1cccc(Nc2nccc(-c3ccncc3)n2)c1` [N-(3-Ethylphenyl)-4-(4-pyridinyl)-2-pyrimidinamine], for which the half-inhibitory concentration (IC50) (Homo sapiens, read-out: IC50) is 10.6 µM.

With `CN(C)CCOc1ccc(Nc2nccc(-c3ccncc3)n2)cc1` [N-[4-[2-(Dimethylamino)ethoxy]phenyl]-4-(4-pyridinyl)-2-pyrimidinamine], the IC50 (Homo sapiens, read-out: IC50) turned out to be 1.5 µM.

As to `CCc1ccc(Nc2nccc(-c3cccn3C)n2)cc1` [N-(4-Ethylphenyl)-4-(1-methyl-1H-pyrrol-2-yl)-2-pyrimidinamine], for the setting “Homo sapiens, read-out: IC50”, the IC50 is less than 48 µM.

Turning to `COc1ccc(Nc2nccc(-c3cccnc3)n2)cc1` [N-(4-Methoxyphenyl)-4-(3-pyridinyl)-2-pyrimidinamine], the half-inhibitory concentration (IC50) (read-out: IC50) was determined as 1.4 µM.

Take `CN(C)c1ccc(Nc2nccc(-c3ccccn3)n2)cc1` [N,N-Dimethyl-N'-[4-(2-pyridinyl)-2-pyrimidinyl]-1,4-benzenediamine, dihydrochloride]: where the note is “Homo sapiens, read-out: IC50”, the half-maximal inhibitory concentration (IC50) was 4.4 µM.

For the molecule `Cc1ccccc1Nc1nccc(-c2ccncc2)n1` [N-(2-Methylphenyl)-4-(4-pyridinyl)-2-pyrimidinamine], the IC50 (Homo sapiens, read-out: IC50) turned out to be 3.9 µM.

For the molecule `Cc1ccc(C)c(Nc2nccc(-c3ccccn3)n2)c1` [N-(2,5-Dimethylphenyl)-4-(2-pyridinyl)-2-pyrimidinamine], the half-maximal inhibitory concentration (IC50) (Homo sapiens, read-out: IC50) was less than 48 µM.

Regarding `CN(C)c1ccc(Nc2nccc(-c3cccs3)n2)cc1` [N,N-Dimethyl-N'-[4-(2-thienyl)-2-pyrimidinyl]-1,4-benzenediamine], the IC50 (Homo sapiens, read-out: IC50) was found to be 0.6 µM.

In the case of `CCc1ccc(Nc2nccc(-c3cccnc3)n2)cc1` [N-(4-Ethylphenyl)-4-(3-pyridinyl)-2-pyrimidinamine], the IC50 (Homo sapiens, read-out: IC50) is less than 48 µM.

For the molecule `Cc1cccc(Nc2nccc(-c3ccc[nH]3)n2)c1` [N-(3-Methylphenyl)-4-(1H-pyrrol-2-yl)-2-pyrimidinamine], under “Homo sapiens, read-out: IC50”, the IC50 was 11.1 µM.

Regarding `COc1cccc(Nc2nccc(-c3ccsc3)n2)c1` [N-(3-Methoxyphenyl)-4-(3-thienyl)-2-pyrimidinamine], the IC50 (Homo sapiens, read-out: IC50) turned out to be 1.7 µM.

As for `CCOC(=O)c1ccc(Nc2nccc(-c3cccnc3)n2)cc1` [4-[[4-(3-Pyridinyl)-2-pyrimidinyl]amino]-benzoic acid, ethyl ester], where the note is “Homo sapiens, read-out: IC50”, the IC50 was 12.4 µM.

For `COc1cccc(Nc2nccc(-c3cccnc3)n2)c1` [N-(3-Methoxyphenyl)-4-(3-pyridinyl)-2-pyrimidinamine], the IC50 (Homo sapiens, read-out: IC50) amounted to 0.3 µM.

`CCOC(=O)c1cccc(Nc2nccc(-c3ccccn3)n2)c1` [3-[[4-(2-Pyridinyl)-2-pyrimidinyl]amino]benzoic acid, ethyl ester]: for the setting “Homo sapiens, read-out: IC50”, the IC50 is 3 µM.

Consider `Cc1cccc(Nc2nccc(-c3ccco3)n2)c1` [4-(2-Furanyl)-N-(3-methylphenyl)-2-pyrimidinamine], for which the IC50 (Homo sapiens, read-out: IC50) stood at 3.5 µM.

In the case of `c1ccc(Nc2nccc(-c3c[nH]c4ccccc34)n2)cc1` [4-(1H-Indol-3-yl)-N-phenyl-2-pyrimidinamine], for the setting “Homo sapiens, read-out: IC50”, the IC50 is 3 µM.

As to `Cc1cccc(Nc2nccc(-c3ccco3)n2)c1` [4-(2-Furanyl)-N-[3-(methylphenyl)]-2-pyrimidinamine, sulfate], under “read-out: IC50”, the IC50 came to 3 µM.

On to `c1cncc(-c2ccnc(Nc3cccc(-n4ccnc4)c3)n2)c1` [N-[3-(1H-Imidazol-1-yl)phenyl]-4-(3-pyridinyl)-2-pyrimidinamine], for which the IC50 (Homo sapiens, read-out: IC50) was 0.1 µM.

Take `CN1CCN(c2ccc(Nc3nccc(-c4ccco4)n3)cc2)CC1` [4-(2-Furanyl)-N-[4-(4-methyl-1-piperazinyl)phenyl]-2-pyrimidin-amine]: the IC50 (Homo sapiens, read-out: IC50) was found to be 1.8 µM.

`CNC(=O)c1ccc(Nc2nccc(-c3cccnc3)n2)cc1` [N-Methyl-4-[[4-(3-pyridinyl)-2-pyrimidinyl]amino]benzamide]: the IC50 (Homo sapiens, read-out: IC50) turned out to be 4.6 µM.

For `CC(=NO)c1ccc(Nc2nccc(-c3cccnc3)n2)cc1` [1-[4-[[4-(3-Pyridinyl)-2-pyrimidinyl]amino]phenyl]ethanone, oxime], the IC50 (Homo sapiens, read-out: IC50) is 11.4 µM.

Regarding `CCc1cccc(Nc2nccc(-c3cccnc3)n2)c1` [N-(3-Ethylphenyl)-4-(3-pyridinyl)-2-pyrimidinamine], the IC50 (Homo sapiens, read-out: IC50) came out at 1.7 µM.

For the molecule `CCc1ccc(Nc2nccc(-c3ccc(C)s3)n2)cc1` [N-(4-Ethylphenyl)-4-(5-methyl-2-thienyl)-2-pyrimidinamine], the IC50 (Homo sapiens, read-out: IC50) is 36.3 µM.

As to `CCN(CC)CCOc1ccc(Nc2nccc(-c3cccnc3)n2)cc1` [N-[4-[2-Diethylamino)ethaxy]phenyl]-4-(3-pyridinyl)-2-pyrimidinamine], the IC50 (Homo sapiens, read-out: IC50) was 0.2 µM.

As to `CN1CCN(c2ccc(Nc3nccc(-c4cccs4)n3)cc2)CC1` [N-[4-(4-Methyl-1-piperazinyl)phenyl]-4-(2-thienyl)-2-pyrimidinamine], the IC50 (Homo sapiens, read-out: IC50) was less than 24 µM.

Consider `c1ccc(-c2ccnc(Nc3ccc(-n4ccnc4)cc3)n2)nc1` [N-[4-(1H-Imidazol-1-yl)phenyl]-4-(2-pyridinyl)-2-pyrimidinamine], for which the IC50 (Homo sapiens, read-out: IC50) was 1.8 µM.

Regarding `Cc1cccc(Nc2nccc(-c3cccs3)n2)c1` [N-(3-Methylphenyl)-4-(2-thienyl)-2-pyrimidinamine, sulfate], the IC50 (sulfate) turned out to be 3 µM.

On to `CC(=O)Nc1ccc(Nc2nccc(-c3cccs3)n2)cc1` [N-[4-[[4-(2-Thienyl)-2-pyrimidinyl]amino]-phenyl]acetamide], for which the half-inhibitory concentration (IC50) (Homo sapiens, read-out: IC50) was determined as 0.2 µM.

Take `Cc1ccsc1-c1ccnc(Nc2ccc(N(C)C)cc2)n1` [N,N-Dimethyl-N'-[4-(3-methyl-2-thienyl)-2-pyrimidinyl]-1,4-benzenediamine]: the IC50 (Homo sapiens, read-out: IC50) is 1.8 µM.

For `NS(=O)(=O)c1cccc(Nc2nccc(-c3cccnc3)n2)c1` [3-[[4-(3-Pyridinyl)-2-pyrimidinyl]amino]benzenesulfonamide], the concentration for half-maximal inhibition (IC50) (Homo sapiens, read-out: IC50) came out at 0.2 µM.

`c1ccc(Nc2nccc(-c3cccnc3)n2)cc1` [N-Phenyl-4-(3-pyridinyl)-2-pyrimidinamine]: under “read-out: IC50”, the half-maximal inhibitory concentration (IC50) is 0.9 µM.

Regarding `c1ccc(Nc2nccc(-c3ccncc3)n2)cc1` [N-Phenyl-4-(4-pyridinyl)-2-pyrimidinamine, phosphate], for the setting “phosphate, read-out: IC50”, the IC50 is 3.3 µM.

In the case of `CC(=O)c1cccc(Nc2nccc(-c3cccnc3)n2)c1` [1-[3-[[4-(3-Pyridinyl)-2-pyrimidinyl]amino]-phenyl]ethanone], the half-inhibitory concentration (IC50) (Homo sapiens, read-out: IC50) turned out to be 4.1 µM.

`c1ccc(Nc2nccc(-c3ccnc4ccccc34)n2)cc1` [N-Phenyl-4-(4-quinolinyl)-2-pyrimi-dinamine]: for the setting “Homo sapiens, read-out: IC50”, the IC50 was found to be 3 µM.

Turning to `COc1ccc(Nc2nccc(-c3ccco3)n2)cc1` [4-(2-Furanyl)-N-(4-methoxyphenyl)-2-pyrimidinamine], under “Homo sapiens, read-out: IC50”, the IC50 was less than 48 µM.

Take `FC(F)(F)c1cccc(Nc2nccc(-c3ccncc3)n2)c1` [4-(4-Pyridinyl)-N-[3-(trifluoro-methyl)phenyl]-2-pyrimidinamine]: the half-inhibitory concentration (IC50) (Homo sapiens, read-out: IC50) was determined as 32 µM.

Take `Fc1ccc(Nc2nccc(-c3cccnc3)n2)c(F)c1` [N-(2,4-Difluorophenyl)-4-(3-pyridinyl)-2-pyrimidinamine]: the IC50 (Homo sapiens, read-out: IC50) is less than 48 µM.

For the molecule `Clc1cccc(Nc2nccc(-c3cccnc3)n2)c1` [N-(3-Chlorophenyl)-4-(3-pyridinyl)-2-pyrimidinamine], the IC50 (Homo sapiens, read-out: IC50) came out at 1.5 µM.

Consider `CN(C)c1ccc(Nc2nccc(-c3cccnc3)n2)cc1` [N,N-Dimethyl-N'-[4-(3-pyridinyl)-2-pyrimidinyl]-1,4-benzenediamine], for which the IC50 (read-out: IC50) came out at 3.7 µM.

Turning to `Clc1cccc(Nc2nccc(-c3ccccn3)n2)c1` [N-(3-Chlorophenyl)-4-(2-pyridinyl)-2-pyrimidinamine], the IC50 (Homo sapiens, read-out: IC50) came out at 1.3 µM.

As to `CCc1ccc(Nc2nccc(-c3ccccn3)n2)cc1` [N-(4-Ethylphenyl)-4-(2-pyridinyl)-2-pyrimidinamine], where the note is “Homo sapiens, read-out: IC50”, the half-inhibitory concentration (IC50) amounted to 2.1 µM.

For the molecule `CN(C)CCOc1ccc(Nc2nccc(-c3cccnc3)n2)cc1` [N-[4-[2-(Dimethylamino)ethoxy]phenyl]-4-(3-pyridinyl)-2-pyrimidinamine], the IC50 (Homo sapiens, read-out: IC50) came out at 0.5 µM.

Take `Cc1cccc(Nc2nccc(-c3ccncc3)n2)c1` [N-(3-Methylphenyl)-4-(4-pyridinyl)-2-pyrimidinamine]: under “Homo sapiens, read-out: IC50”, the IC50 was found to be 9.4 µM.

For `CC(C)(C)c1ccc(Nc2nccc(-c3cccnc3)n2)cc1` [N-[4-(1,1-Dimethylethyl)phenyl]-4-(3-pyridinyl)-2-pyrimidinamine], under “Homo sapiens, read-out: IC50”, the IC50 was found to be 0.7 µM.

Turning to `Fc1cccc(F)c1Nc1nccc(-c2ccncc2)n1` [N-(2,6-Difluorophenyl)-4-(4-pyridinyl)-2-pyrimidinamine], the IC50 (Homo sapiens, read-out: IC50) stood at 2.9 µM.

Regarding `c1cc(-c2ccnc(Nc3ccc(-n4ccnc4)cc3)n2)ccn1` [N-[4-(1H-Imidazol-1-yl)phenyl]-4-(4-pyridinyl)-2-pyrimidinamine], the IC50 (Homo sapiens, read-out: IC50) turned out to be 12.3 µM.
